The text below walks through data of patent publication US20190079079A1, “3-D TISSUE CULTURE BASED METHOD TO ASSESS MITOCHONDRIAL IMPAIRMENT” (INSPHERO AG, priority 2016, published 2019).

For data set [1] the following is noted: categorized by Gustafsson et al; cited from earlier work.
Data set [2] relates to 3D primary human hepatocytes microtissues (IPHH_02).
Method: (§1) B. Coating of Seahorse Spheroid plates • 20 uL of Poly-D-Lysine (100 ug/mL diluted in cell culture grade water) were added to each well of the Seahorse Spheroid plate (Incubation for 20min @ RT) • After coating, the Seahorse Spheroid plate was washed with 200 uL of sterile water and wash was removed (Washing step repeated once) • Seahorse Spheroid plate has been air dried for a few minutes
(§2) D. Seahorse XF Analyzer Run • While cell incubation fill up the ports of the cartridge according to the Seahorse manufacturer's protocol • Setup groups and parameters for the measurement (basal: 7 cycles, oligomycin 2 uM: 6 cycles, FCCP 0.5 uM: 3 cycles, FCCP 1 uM: 3 cycles, Rot/AA 0.5 uM: 9 cycles) • Start the measurement
(§3) DILI classification: Drug-induced liver injury according to Gustafsson et al, 2014 (N=negative, P=positive). CMax=concentration of candidate compound used in Gustafsson et al, 2014; CTop=concentration of candidate compound used herein; IC50CV/Cyt determined by the CellTiter-Glo Luminescent Cell Viability Assay (Promega, Madison, US) as disclosed herein, IC50MTSRR determined as inhibition on spare respiratory capacity (SPARE), as disclosed herein; MOS: Margin of safety; High Mito-toxic risk: IC5O_MTSRR<0.75×IC5O_CV/CYT; Low Mito-toxic risk: IC5O_MTSRR<IC5O_CV/CYT and IC5O_MTSRR≥0.75×IC5O_CV/CYT; No Mito-toxic risk: IC5O_MTSRR≥IC5O_CV/CYT
Data set [3] has the same test system. Put plainly: Seahorse XF Analyzer measurement of spare respiratory capacity (microtissue-specific respiration rate, MTSRR) after 48 h compound exposure. Particulars: High: IC50_MTSRR<0.75×IC50_CV/CYT; Low: IC50_MTSRR<IC50_CV/CYT and ≥0.75×IC50_CV/CYT; No: IC50_MTSRR≥IC50_CV/CYT (CV/CYT by CellTiter-Glo).
Method: as §1, §2, §3

Where a name gives a salt, the structure may show the parent alone. Read-outs that look alike come from different tables or passages of the source.

As to `O=c1[nH]c(=O)n([C@@H]2O[C@H](CO)[C@@H](O)[C@@H]2F)cc1I` [Fialuridine], the DILI classification entry in data set [1] is recorded as “liver toxic”. For the same molecule, the Mitochondrial toxicity risk entry in data set [2] is reported as “not have specific mitochondrial toxicity”.

As for `CN(C)C(=N)N=C(N)N` [Metformin HCl], the DILI classification result in data set [1] is listed as “not liver toxic”. Also, the Mitochondrial toxicity risk entry in data set [3] is “low mitochondrial toxicity”.
